Data reported in ChEMBL document CHEMBL1201862, “PubChem BioAssay data set” (2004).
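Method: 48-hour compound exposure of cells in 96-well plates, five concentrations, linear interpolation of endpoints. The concentration for 50% growth inhibition is given as GI50.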 Active and inactive are the calls of the source. No stated cut-off is given here; in the data, active = GI50 up to about 1.1 µM and inactive = higher.

Experiments:
Assay in all cases: DTP human tumour cell line panel, 48 h
[1] = tested on: KM12
[2] = tested on: 786-0
[3] = tested on: OVCAR-8
[4] = tested on: SK-MEL-5
[5] = tested on: UACC-62
[6] = tested on: UACC-257
[7] = tested on: M14
[8] = tested on: SN12C
[9] = tested on: OVCAR-3
[10] = tested on: LOX IMVI
[11] = tested on: SK-OV-3
[12] = tested on: NCI/ADR-RES
[13] = tested on: HT-29
[14] = tested on: TK-10
[15] = tested on: IGROV-1
[16] = tested on: SNB-19
[17] = tested on: PC-3
[18] = tested on: Hs-578T
[19] = tested on: MOLT-4
[20] = tested on: CCRF-CEM

Row | Structure (SMILES) | GI50 [1] | GI50 [2] | GI50 [3] | GI50 [4] | GI50 [5] | GI50 [6] | GI50 [7] | GI50 [8] | GI50 [9] | GI50 [10] | GI50 [11] | GI50 [12] | GI50 [13] | GI50 [14] | GI50 [15] | GI50 [16] | GI50 [17] | GI50 [18] | GI50 [19] | GI50 [20]
1 | O=C(O)CCc1nc(-c2ccccc2-n2cccc2)no1 | 5.89 µM (inactive) | > 100 µM (inactive) | > 100 µM (inactive) | > 100 µM (inactive) | > 100 µM (inactive) | > 100 µM (inactive) | 89.1 µM (inactive) | > 100 µM (inactive) | 29 µM (inactive) | > 100 µM (inactive) | > 100 µM (inactive) | > 100 µM (inactive) | 57.3 µM (inactive) | > 100 µM (inactive) | 73.1 µM (inactive) | > 100 µM (inactive) | > 100 µM (inactive) | > 100 µM (inactive) |  | 
2 | Sc1nnc(COc2ccc(Cl)cc2)n1-c1ccccc1 | > 100 µM (inactive) | > 100 µM (inactive) | > 100 µM (inactive) |  | > 100 µM (inactive) | > 100 µM (inactive) | > 100 µM (inactive) | > 100 µM (inactive) | > 100 µM (inactive) | 49.3 µM (inactive) | > 100 µM (inactive) | > 100 µM (inactive) | > 100 µM (inactive) | > 100 µM (inactive) | > 100 µM (inactive) | > 100 µM (inactive) | > 100 µM (inactive) |  | 88.3 µM (inactive) | 74.1 µM (inactive)
3 | O=CN/C=C/c1ccccc1 | > 100 µM (inactive) | > 100 µM (inactive) | > 100 µM (inactive) | > 100 µM (inactive) | > 100 µM (inactive) | > 100 µM (inactive) | > 100 µM (inactive) | > 100 µM (inactive) | > 100 µM (inactive) | > 100 µM (inactive) | > 100 µM (inactive) |  | > 100 µM (inactive) | > 100 µM (inactive) | > 100 µM (inactive) | > 100 µM (inactive) | > 100 µM (inactive) |  | > 100 µM (inactive) | > 100 µM (inactive)
4 | COc1cc(C2C3C=CC=C4CC=CC(=C43)C3CCC(=O)N32)cc(OC)c1OC (stereo unspecified) | > 100 µM (inactive) | > 100 µM (inactive) | > 100 µM (inactive) |  | 30.8 µM (inactive) | > 100 µM (inactive) | > 100 µM (inactive) | > 100 µM (inactive) | > 100 µM (inactive) | > 100 µM (inactive) | 64 µM (inactive) | 13.8 µM (inactive) | 61.5 µM (inactive) | > 100 µM (inactive) | 68.4 µM (inactive) | > 100 µM (inactive) | 59 µM (inactive) |  | > 100 µM (inactive) | 
5 | COc1cc2c(c(OC)c1OC)-c1ccc(SC)cc1C(O)CC2 (stereo unspecified) | < 0.01 µM (active) | < 0.01 µM (active) |  | < 0.01 µM (active) | < 0.01 µM (active) |  | < 0.01 µM (active) | 0.427 µM (active) | < 0.01 µM (active) | < 0.01 µM (active) |  |  |  | 41 µM (inactive) | < 0.01 µM (active) | < 0.01 µM (active) | < 0.01 µM (active) |  | < 0.01 µM (active) | < 0.01 µM (active)
6 | O=C(O/N=C1/CCC/C1=C\c1ccccc1)c1ccc(Cl)cc1 | > 100 µM (inactive) | 51.8 µM (inactive) | > 71.6 µM (inactive) | > 100 µM (inactive) | > 80.4 µM (inactive) | > 100 µM (inactive) | > 100 µM (inactive) | > 58.6 µM (inactive) | 36 µM (inactive) | > 100 µM (inactive) | > 70.3 µM (inactive) |  | > 100 µM (inactive) | 38.9 µM (inactive) | > 46.5 µM (inactive) | > 100 µM (inactive) |  |  | > 100 µM (inactive) | > 100 µM (inactive)
7 | O=C(CSCC(=O)N/N=C\c1ccc(-c2ccccc2)cc1)N/N=C\c1ccc(-c2ccccc2)cc1 | 17.9 µM (inactive) | 33.2 µM (inactive) | 24.6 µM (inactive) | 39.9 µM (inactive) | 22.9 µM (inactive) | 35.7 µM (inactive) | 23.8 µM (inactive) | 24.7 µM (inactive) | 16.1 µM (inactive) | 16.3 µM (inactive) | 18.9 µM (inactive) | 56.4 µM (inactive) | 23 µM (inactive) | 26 µM (inactive) | 11.8 µM (inactive) | 26.2 µM (inactive) | 30.4 µM (inactive) | 18.3 µM (inactive) | 25.3 µM (inactive) | 
8 | CN1c2ccccc2NC(CC(=O)O)C2CC=CN21 (stereo unspecified) | > 100 µM (inactive) | > 100 µM (inactive) | > 100 µM (inactive) | > 100 µM (inactive) | > 100 µM (inactive) | > 100 µM (inactive) | > 100 µM (inactive) | > 100 µM (inactive) | > 100 µM (inactive) | > 100 µM (inactive) | > 100 µM (inactive) |  | > 100 µM (inactive) | > 100 µM (inactive) | > 100 µM (inactive) | > 100 µM (inactive) |  |  | > 100 µM (inactive) | > 100 µM (inactive)
9 | Cc1cc(-c2ccccc2)nc(Nc2cc3ccccc3[nH]2)n1 | > 100 µM (inactive) | > 100 µM (inactive) | > 100 µM (inactive) | > 100 µM (inactive) | > 100 µM (inactive) | > 100 µM (inactive) | > 100 µM (inactive) | > 100 µM (inactive) | > 100 µM (inactive) | > 100 µM (inactive) | > 100 µM (inactive) |  | > 100 µM (inactive) | > 100 µM (inactive) | > 100 µM (inactive) | > 100 µM (inactive) |  |  | > 100 µM (inactive) | > 100 µM (inactive)
10 | O=c1c2ccccc2[se]n1-c1cccnc1 | 79.3 µM (inactive) | 31.4 µM (inactive) | 24.9 µM (inactive) | 12.9 µM (inactive) | 13 µM (inactive) | 23.4 µM (inactive) | 30.7 µM (inactive) | 29.6 µM (inactive) | 29.1 µM (inactive) | 24.5 µM (inactive) | > 100 µM (inactive) | 33.5 µM (inactive) | 43.8 µM (inactive) | 24.2 µM (inactive) | 19.8 µM (inactive) | 49.4 µM (inactive) | 22.3 µM (inactive) | 20.1 µM (inactive) | 31.3 µM (inactive) | 
11 | COc1cc(C(C)O)c[n+](Cc2ccccc2)c1 (stereo unspecified) | > 100 µM (inactive) | > 100 µM (inactive) | > 31.6 µM (inactive) | > 100 µM (inactive) | > 100 µM (inactive) | > 100 µM (inactive) | > 100 µM (inactive) | > 40.5 µM (inactive) | > 100 µM (inactive) | > 100 µM (inactive) | > 100 µM (inactive) |  | > 100 µM (inactive) | > 100 µM (inactive) | > 100 µM (inactive) | > 100 µM (inactive) |  |  | > 100 µM (inactive) | > 100 µM (inactive)
12 | COc1cc2ccnc3c2c(c1OC)N(C)C=C3 | 25.9 µM (inactive) | 17.2 µM (inactive) | 26.5 µM (inactive) |  | 26.4 µM (inactive) | 34.4 µM (inactive) | 26.3 µM (inactive) | 30.4 µM (inactive) | 29.4 µM (inactive) | 21.5 µM (inactive) | 16.5 µM (inactive) | 24.3 µM (inactive) |  | 35.3 µM (inactive) |  | 25.2 µM (inactive) | 31.9 µM (inactive) | 29.3 µM (inactive) | 30 µM (inactive) | 
13 | Cc1cccc(NC(Nc2cccc(C)c2)=C(C(Cl)=C(Cl)Cl)[N+](=O)[O-])c1 | 19.5 µM (inactive) | 14.7 µM (inactive) | 12.3 µM (inactive) | 5.98 µM (inactive) | 13.4 µM (inactive) | 19.3 µM (inactive) | 16.1 µM (inactive) | 7.59 µM (inactive) | 9.31 µM (inactive) | 8.99 µM (inactive) | 22.3 µM (inactive) | 14 µM (inactive) | 15.3 µM (inactive) | 12.4 µM (inactive) | 2.28 µM (inactive) | 25.8 µM (inactive) | 19.9 µM (inactive) |  | 2.17 µM (inactive) | 63.5 µM (inactive)
14 | CCOC(=O)N(CC)c1c(C(F)(F)F)cc(-c2ccccc2)[nH]c1=O | 36.1 µM (inactive) | 64.3 µM (inactive) | 49.4 µM (inactive) | 41.7 µM (inactive) | 66.2 µM (inactive) | 48.3 µM (inactive) | 66.4 µM (inactive) | 48.6 µM (inactive) | 37.1 µM (inactive) | 68.4 µM (inactive) | 92 µM (inactive) | 24.7 µM (inactive) | 61.1 µM (inactive) | 97.9 µM (inactive) | 47.2 µM (inactive) | > 100 µM (inactive) | 46.5 µM (inactive) |  | 25.8 µM (inactive) | 16.4 µM (inactive)
15 | COC(=O)c1c(C(=O)OC)c(-c2ccccc2)n(-c2ccccc2)c(=O)c1-c1ccccc1 | > 100 µM (inactive) | 32.4 µM (inactive) | 51.4 µM (inactive) | > 100 µM (inactive) | 61 µM (inactive) | 71.8 µM (inactive) | > 100 µM (inactive) | > 100 µM (inactive) | 51.8 µM (inactive) | 84.5 µM (inactive) | 53.5 µM (inactive) |  | > 100 µM (inactive) | > 100 µM (inactive) | > 100 µM (inactive) | 67.9 µM (inactive) |  |  | > 100 µM (inactive) | > 100 µM (inactive)
16 | O=C1Nc2ccc(Br)cc2/C1=C/C(=O)c1ccccc1 | 7.83 µM (inactive) | 1.67 µM (inactive) | 2.1 µM (inactive) | 16.7 µM (inactive) | 16 µM (inactive) | 15.1 µM (inactive) | 11.1 µM (inactive) | 4.2 µM (inactive) | 6.82 µM (inactive) | 1.93 µM (inactive) | 17.6 µM (inactive) |  | 1.59 µM (inactive) | 1.82 µM (inactive) | 3.67 µM (inactive) | 19.4 µM (inactive) | 9.38 µM (inactive) | 17.7 µM (inactive) | 2.64 µM (inactive) | 1.9 µM (inactive)
